Laboratory results as given in patent US20140155397A1, “EMT SIGNATURES AND PREDICTIVE MARKERS AND METHOD OF USING THE SAME” (Board of Regents, priority 2011, published 2014).
Read-outs that look alike come from different tables or passages of the source.

Tests used:
[1] = target: T1, AXL (Homo sapiens, UniProt P30530); experiment: Gas6 ligand-induced tyrosine phosphorylation of human AXL expressed in HEK293T cells; type: cell-based; set-up: expressed in transfected cells; host or cells: HEK293T; conditions: read-out: EC50, inhibition of Gas6 ligand-induced tyrosine phosphorylation of AXL
T1 sequence (P30530 26-894): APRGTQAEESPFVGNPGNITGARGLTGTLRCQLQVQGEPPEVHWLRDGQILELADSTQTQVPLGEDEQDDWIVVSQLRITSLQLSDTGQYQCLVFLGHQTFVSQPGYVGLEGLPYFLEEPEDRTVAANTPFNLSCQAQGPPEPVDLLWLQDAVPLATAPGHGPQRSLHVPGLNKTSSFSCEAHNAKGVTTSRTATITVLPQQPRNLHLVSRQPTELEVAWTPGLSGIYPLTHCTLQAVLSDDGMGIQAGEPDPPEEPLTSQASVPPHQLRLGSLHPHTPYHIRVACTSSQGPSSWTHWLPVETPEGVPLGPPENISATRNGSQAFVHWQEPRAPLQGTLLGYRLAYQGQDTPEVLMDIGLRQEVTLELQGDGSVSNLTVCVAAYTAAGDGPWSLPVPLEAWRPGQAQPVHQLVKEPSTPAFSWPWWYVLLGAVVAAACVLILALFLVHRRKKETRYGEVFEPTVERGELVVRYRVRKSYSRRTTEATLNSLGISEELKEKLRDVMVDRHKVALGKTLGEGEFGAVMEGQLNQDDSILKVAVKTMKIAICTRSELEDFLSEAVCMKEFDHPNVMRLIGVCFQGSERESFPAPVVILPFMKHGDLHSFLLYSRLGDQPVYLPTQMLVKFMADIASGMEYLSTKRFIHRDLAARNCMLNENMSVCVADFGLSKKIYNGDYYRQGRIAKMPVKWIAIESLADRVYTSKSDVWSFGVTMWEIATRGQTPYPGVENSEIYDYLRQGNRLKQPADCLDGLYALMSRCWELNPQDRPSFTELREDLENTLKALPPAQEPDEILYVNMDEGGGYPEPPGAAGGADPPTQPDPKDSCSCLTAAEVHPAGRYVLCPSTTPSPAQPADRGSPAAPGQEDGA

[2] = target: T2, MER (Homo sapiens, UniProt Q12866); experiment: Protein kinase panel; type: biochemical
T2 sequence (Q12866 21-999): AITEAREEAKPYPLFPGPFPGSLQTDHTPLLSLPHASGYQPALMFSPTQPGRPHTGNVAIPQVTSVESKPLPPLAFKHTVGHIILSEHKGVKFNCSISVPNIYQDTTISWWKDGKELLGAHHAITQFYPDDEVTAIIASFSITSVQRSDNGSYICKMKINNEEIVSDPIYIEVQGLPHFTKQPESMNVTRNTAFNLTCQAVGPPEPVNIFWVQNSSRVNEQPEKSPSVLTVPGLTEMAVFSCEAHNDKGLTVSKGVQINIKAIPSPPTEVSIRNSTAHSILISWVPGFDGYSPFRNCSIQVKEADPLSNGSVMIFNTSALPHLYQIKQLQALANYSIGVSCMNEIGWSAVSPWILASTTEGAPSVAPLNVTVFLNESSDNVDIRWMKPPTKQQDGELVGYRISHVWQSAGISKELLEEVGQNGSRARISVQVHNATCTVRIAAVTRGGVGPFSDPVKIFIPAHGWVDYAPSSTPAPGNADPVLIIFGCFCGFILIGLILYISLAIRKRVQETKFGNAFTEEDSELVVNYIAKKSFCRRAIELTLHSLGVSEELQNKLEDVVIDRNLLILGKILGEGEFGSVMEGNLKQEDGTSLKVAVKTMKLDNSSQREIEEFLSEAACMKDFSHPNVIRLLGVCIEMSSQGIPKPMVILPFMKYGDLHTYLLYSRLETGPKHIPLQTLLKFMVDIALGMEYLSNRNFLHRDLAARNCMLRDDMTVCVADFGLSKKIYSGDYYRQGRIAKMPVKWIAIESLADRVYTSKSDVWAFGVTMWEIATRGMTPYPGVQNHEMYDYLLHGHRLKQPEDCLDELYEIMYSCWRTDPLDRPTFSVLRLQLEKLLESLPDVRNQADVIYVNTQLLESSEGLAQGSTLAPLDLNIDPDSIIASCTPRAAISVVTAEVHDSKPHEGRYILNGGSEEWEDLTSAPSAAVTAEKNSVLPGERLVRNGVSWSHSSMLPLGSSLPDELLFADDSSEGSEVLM
Source text: (§1) Purified recombinant AXL kinase was used to screen a library of structures with appropriate drug-like scaffolds to identify potential inhibitors. Hits from the screen were confirmed and r analyzed by selection criteria including Lipinski rules. One pyrrolopyrimidine-based compound was selected for structure-activity relationship efforts. Optimization of this scaffold and subsequent evaluation led to the generation of compound SG1-7079 as the lead candidate inhibitor (FIG. 10). […] SGI-7079 was screened against a panel of protein kinases to determine both selectivity and biochemical potency.

[3] = target: PDGFRβ (Homo sapiens, UniProt P09619); experiment: Protein kinase panel; type: biochemical
Source text: as §1

[4] = tested on: Cells expressing high levels of Axl; experiment: Proliferation of six mesenchymal cell lines expressing high levels of Axl (summary); type: cell-based; conditions: single agent
Source text: Average values were used for analysis as described. […] Chou T. C., et al., Quantitative Analysis of Dose-Effect Relationships: The Combined Effects of Multiple Drugs or Enzyme Inhibitors. Adv Enzyme Regul.

Chain of PDGFRβ (P09619 33-1106, species assumed): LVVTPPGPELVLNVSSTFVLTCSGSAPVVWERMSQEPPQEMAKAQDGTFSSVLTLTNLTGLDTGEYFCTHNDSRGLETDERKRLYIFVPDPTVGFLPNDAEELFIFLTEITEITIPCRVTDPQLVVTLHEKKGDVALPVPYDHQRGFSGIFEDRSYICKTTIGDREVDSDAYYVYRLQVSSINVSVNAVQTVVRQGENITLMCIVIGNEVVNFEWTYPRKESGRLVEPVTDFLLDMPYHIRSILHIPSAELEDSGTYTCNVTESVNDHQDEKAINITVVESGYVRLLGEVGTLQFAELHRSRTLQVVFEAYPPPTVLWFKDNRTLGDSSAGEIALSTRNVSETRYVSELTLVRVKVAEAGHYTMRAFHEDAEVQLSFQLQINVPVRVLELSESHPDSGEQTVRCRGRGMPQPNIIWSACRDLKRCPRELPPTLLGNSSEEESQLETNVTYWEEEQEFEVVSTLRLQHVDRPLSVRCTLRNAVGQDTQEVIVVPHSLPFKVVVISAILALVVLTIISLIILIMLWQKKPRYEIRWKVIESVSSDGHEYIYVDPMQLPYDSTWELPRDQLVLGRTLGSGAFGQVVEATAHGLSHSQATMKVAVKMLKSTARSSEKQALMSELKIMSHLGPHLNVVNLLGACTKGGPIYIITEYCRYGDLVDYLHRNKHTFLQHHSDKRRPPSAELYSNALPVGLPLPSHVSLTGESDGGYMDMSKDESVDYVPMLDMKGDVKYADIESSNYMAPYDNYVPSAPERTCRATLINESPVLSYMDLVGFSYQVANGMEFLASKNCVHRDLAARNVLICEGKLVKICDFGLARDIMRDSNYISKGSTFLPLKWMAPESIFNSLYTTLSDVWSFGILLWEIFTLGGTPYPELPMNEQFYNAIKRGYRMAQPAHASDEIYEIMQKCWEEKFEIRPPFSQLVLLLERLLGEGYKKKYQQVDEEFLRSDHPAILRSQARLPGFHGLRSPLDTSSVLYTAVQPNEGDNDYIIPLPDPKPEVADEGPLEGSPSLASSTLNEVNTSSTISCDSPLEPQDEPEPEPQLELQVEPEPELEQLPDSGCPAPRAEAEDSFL

EC50 [1]: 100 nM
Inhibition of MER [2]: similarly as AXL
Inhibition of PDGFRβ [3]: potent, low nM inhibition
Structure (SMILES): Cc1c[nH]c2nc(Nc3ccc(N4CCN(C)CC4)c(F)c3)nc(-c3cccc(CC#N)c3)c12 [SGI-7079]
IC50 ([4]; read-out: IC50 range across cell lines): 740 to 4290 nM
IC50 ([4]; read-out: Mean IC50 across cell lines): 1300 nM
